The text below walks through data of patent US7582638B2, “Pyrazole-isoquinoline urea derivatives as p38 kinase inhibitors” (Eli Lilly and Company, priority 2005, dated 2009).

Broadly, the IC50 is the midpoint of a concentration-inhibition curve. Broadly, the Cmax is the peak of the concentration-time curve.

The test system of data set [1] is pMAPKAPK2. Description: Inhibition of p-MAPKAPK2 in vitro (anisomycin-stimulated RAW 264.7 cells, ELISA). Format: cell-based, murine. The settings on record: Mus musculus, RAW264.7, 2 hours compound, anisomicin 100 ug/ml 30 minutes, read-out: IC50, inhibition of pMAPKAPK2 enzyme production. As to the method: RAW 264.7 cells (a murine monocytic/macrophage line ATCC) are seeded at a density of 50,000 cells/well in 96-well plates with RPMI-1640 medium plus 10% fetal bovine serum (FBS) and allowed to settle and adhere to the bottom of the well for 48 hours. After reaching confluence, cells are treated for 2 hours with 10 serial dilutions of different compounds. A control compound is always included. After 2 hours, anisomicin (100 ug/ml) is added and cells are incubated for 30 minutes at 37° C. under a 5% CO2 atmosphere. Then, cells are fixed and treated with hydrogen peroxide in order to remove endogenous peroxidase. Finally, plates are blocked with FBS, washed, and an ELISA assay is carried out by using an antiphospho-MAPKAPK2 (Thr 334, Cell Signalling, Cat # 3041) antibody and ahP-Conjugated Secondary Antibody. This reaction is detected by using FEMTO (Pierce) which is an enhanced chemiluminiscent substrate ahP that results in rapid kinetic light output and high signal intensity. The compound exemplified in Example 12 is tested essentially as described above and is found to inhibit the pMAPKAPK2 enzyme production with an IC50 of 7 nM.
Background: In an ELISA, binding on a coated surface is turned into a signal by an enzyme label.

Data set [2] relates to TNFα. Description: Effect on intra-articular LPS induced TNFα (synovial lavage fluid). Format: in vivo. The settings on record: female Lewis rats, oral, intra-articular LPS 10 μg one hour later, lavage after two hours. As to the method:
Intra-articular injection of LPS into rat ankles induces the synthesis of TNFα, which can be measured in synovial lavage fluid. High levels of TNFα are detectable within 2 hours. Since the joint is the site where arthritis develops, this model can rapidly determine whether an orally administered compound has an effect on an inflammatory response in the synovium.
Six female Lewis rats (150-200 g) are place in each treatment group. The animals are given vehicle (1% NaCarboxylnethylcellulose-0.25% Tween 80) or test compound (1 mg/kg, 3 mg/kg, 10 mg/kg, and 30 mg/kg) orally. One hour later, 10 μl LPS (10 μg) is administered intra-articularly into the right ankle of each rat, while the left ankle receives 10 μL of saline. After two hours, each ankle is lavaged with 100 μL of saline. The lavage is collected and stored at −80° C. • Group#1: Vehicle (1%/NaCMC-0.25% Tween 80, 1 mL, PO) • Group#2: Test compound (1 mg/kg, 1 mL, PO) • Group#3: Test compound (3 mg/kg, 1 mL, PO) • Group#4: Test compound (10 mg/kg, 1 mL, PO) • Group#5: Test compound (30 mg/kg, 1 mL, PO)
TNFα is measured with a commercially available ELISA kit (R&D, RTA00).

Data set [3] in a line: Oral exposure. Type of data set: in vivo. The settings on record: rat, 1 mg/kg, male Fischer 344 rats, fasted, gavage, suspension 1 mg/mL at 1 mL/kg, plasma. The procedure:
Compounds are screened for oral exposure in male Fischer 344 rats. Animals are fasted overnight and administered test compounds prepared as suspensions in sodium carboxymethylcellulose (1% w/v) containing Tween 80 (0.25% v/v) and antifoam (0.1% w/v). Dose suspensions are prepared at 1 mg/mL and administered at 1 mL/kg by gavage. Blood samples are taken between 0.5 h and 7 h after dose administration and plasma are prepared by centrifugation. Plasma samples are analyzed using online solid phase extraction and LC/MS/MS.

Data set [4] deals with p38 kinase enzyme. The data set can be described thus: Inhibition of p38 kinase (33P-ATP, EGF peptide 661-681 substrate). Type of data set: biochemical. The following applies: 40 minutes at 30° C. As to the method:
The kinase buffer solution is prepared by combining 2.5 mL 1M Tris-HCl (pH 7.5), 0.1 mL 1 M dithiothreitol, 1.0 mL 1 M magnesium chloride, and 300 μL 1% Triton X-100 and diluting to 100 mL with water. 84 mL of this kinase buffer solution is combined with 16 mL DMSO to prepare the 16% DMSO solution.
The 200 μM ATP solution is prepared by adding 102.6 μL 10 mM aqueous ATP, 25 μL ^33P-ATP, and 163.5 μL of 4 mM aqueous Epidermal Growth Factor Peptide 661-681 (Biomol, Catalog #P-121) in 5 mL kinase buffer solution.
The p38 kinase enzyme solution is prepared by dissolving 9.5 μL concentrated enzyme solution (250 ng p38 enzyme/μL kinase buffer solution) in 1536 μL kinase buffer solution.
An 80 μM solution of each test compound and control compound are prepared by dissolving 2 μL of a 10 mM stock solution of the respective compounds in dimethylsulfoxide in 248 μL of the 16% DMSO solution in a Costar 96-well microtiter plate. […]
10 μL of serially diluted compound is placed with a Beckman Multimek 96-well automated liquid handler to the assay plate. […] The plates are allowed to sit for 30 min and counted on a PE/Wallac Microbeta Trilux scintillation counter for ^33P-isotope.
The compound exemplified in Example 12 is initially tested at 10 concentrations (20 μM-1 nM using 1:3 serial dilutions). […] IC50 values are calculated (IDBS ActivityBase software) for each compound using non-linear regression.

On to `CS(=O)(=O)O.Cc1ccc(-n2nc(C3(C)CC3)cc2NC(=O)Nc2cnc(OC3CCN(C(=O)C4(C)CC4)CC3)c3ccccc23)cc1` [Example 12, 1-{1-[1-(1-Methyl-cyclopropanecarbonyl)-piperidin-4-yloxy]-isoquinolin-4-yl}-3-[5-(1-methyl-cyclopropyl)-2-p-tolyl-2H-pyrazol-3-yl]-urea mesylate], for which the concentration for half-maximal inhibition (IC50) in data set [1] worked out at 0.007 µM; in data set [4] it was 0.034 µM. In data set [2], the “TMED50, inhibition of TNFα synthesis in the synovial lavage fluid” value was 2.54 mg/kg. In data set [3], this compound showed a Cmax of 9.39 µg/mL. Moreover, the AUC(0-t) in data set [3] (read-out: AUC (0-7 h)) is 36.8 µg·h/mL.
